Assay results reported in patent US8030314B2, “Use of 2h-benzimidazol-2-one, 1,3-dihydro-1-(2{4-[3-(trifluoromethyl)phenyl]-1-piperazinyl}ethyl)-and its physiologically acceptable acid addition salts” (priority 2001, dated 2011).

Assays:
[1] = test system: 5-HT inhibitory response (forskolin-stimulated cAMP accumulation); conditions: rat cortex; read-out: reduced forskolin-stimulated cAMP accumulation (EC50); cited from earlier work
[2] = test system: cultured dopaminergic cells (from fetal rat mesencephalic tissue); assay: survival of cultured dopaminergic cells exposed to 6-hydroxydopamine; type: cell-based; conditions: toxin (6-hydroxydopamine) co-administered with flibanserin
Procedure: The reason of developing Parkinson's disease is a chronic process leading to a loss of dopaminergic neurons in a certain area of the EPS (substantia nigra). That process may be simulated in an experiment using cultured dopaminergic cells (from fetal rat mesencephalic tissue) which are exposed to a selective toxin (6-hydroxydompamine). The experiments were conducted in accordance with the method of Michel and Hefti, 1990. When the toxin was added to the cell culture medium the survival time of the neurons was markedly diminished. […] This indicates additionally neuroprotective properties of flibanserin. On the basis of these experiments it can be expected that patients treated with flibanserin will take benefit from said neuroprotective effect by slowing down or stopping the progression of the disease . Moreover, if flibanserin is given in early stages of the disease, a steady process leading to more severe stages may be postponed or even avoided. In particular, the occurrence of levodopa-induced dyskinesias can be prevented. In-so-far, a synergistic effect of the common administration of conventional anti-Parkinson drugs along with flibanserin in the treatment of Parkinson's disease is to be expected as increased “ON”-periods and decreased “OFF”-periods may be obtained.

[3] = test system: levodopa-induced dyskinesias; assay: levodopa-induced dyskinesias in MPTP-treated common marmosets; type: in vivo, common marmosets (callithrix jacchus)
Procedure: In order to investigate the efficacy of flibanserin in the treatment of levodopa-induced dyskinesias, experiments in a primate model of Parkinson's disease were performed. 6 common marmosets (callithrix jacchus) that developed chronical Parkinsonian motor deficits after MPTP administration were treated orally with levodopa plus carbidopa for 3 weeks according to the procedure described by Pearce et al. (1995). […] The severity of dyskinesias was measured by assessing the extent of choreic and dystonic movements in all parts of the body.

[4] = test system: tardive dyskinesias; assay: persistent tardive dyskinesia model in baboons; type: in vivo; conditions: baboons with persistent tardive dyskinesia induced by a haloperidol derivative for 41 weeks
Source text: The clinical appearance of levodopa-induced dyskinesias and of tardive dyskinesias are very often similar. […] dyskinesias are frequently observed in chronic schizophrenic patients after long-term treatment with neuroleptics. Recently an animal model of tardive dyskinesia was developed by Eyles at al. 2000. Persistent tardive dyskinesias were induced in 6 baboons by application of a derivative of haloperidol for 41 weeks until the animals developed abnormal orofacial signs that were consistent with tardive dyskinesia. These symptoms persisted during the drug-free period. The extent of dyskinesias was assessed by using a score derived fromt that applied in humans (Abnormal Involuntary Movement Scale). There was a significant improvement of dyskinesias by more than 50% after application of flibanserin. That means that flibanserin is also helpful in the treatment of tardive dyskinesia in chronic schizophrenic patients.

[5] = test system: rat cortical firing rate; conditions: in vivo; cited from earlier work
[6] = target: 5-HT-induced PI turnover; conditions: rat cortex; read-out: antagonized 5-HT-induced PI turnover (Ki); cited from earlier work

Structure (SMILES): O=c1[nH]c2ccccc2n1CCN1CCN(c2cccc(C(F)(F)F)c2)CC1 [flibanserin, 2H-benzimidazol-2-one, 1,3-dihydro-1-(2-{4-[3-(trifluoromethyl)phenyl]-1-piperazinyl}ethyl)-]
- EC50 [1]: 913 nM
- concentrations at which normal survival times were reached [2]: 0.1 to 1 µM
- survival time of neurons [2]: increased in a concentration-dependent manner
- effect of levodopa on rigidity and bradykinesia ([3]; flibanserin in addition to levodopa): not weakened
- severity of dyskinesias (extent of choreic and dystonic movements) ([3]; flibanserin in addition to levodopa, MPTP marmosets treated orally with levodopa plus carbidopa for 3 weeks): significantly reduced said dyskinesias
- dyskinesia symptoms in monkeys with less severe dyskinesia ([3]; some of the monkeys with less severe dyskinesia): symptoms disappeared entirely
- improvement of dyskinesias (score derived from Abnormal Involuntary Movement Scale) [4]: more than 50%
- inhibition of rat cortical firing rate [5]: dose-dependently inhibited rat cortical firing rate
- Ki [6]: 113 nM
